In paper PMC10882993, “Protecting the Achilles heel: three FolE_I-type GTP-cyclohydrolases needed for full growth of metal-resistant Cupriavidus metallidurans under a variety of conditions” (Journal of Bacteriology, 2024):
Values after ≈ are worked out from the molar mass of the structure shown. Read-outs that look alike come from different tables or passages of the source.

Assays:
Experiment in all cases: microbe, parasite or virus in culture
[1] = tested on: T1, Cupriavidus metallidurans AE104; parameters: growth inhibition of bacterial culture by metal chelators
T1 construct: AE104
Text: EDTA, membrane-permeant TPEN, and DIP complex divalent transition metal cations with similar stability constants, EDTA with Cu > Ni > Zn > Co > Fe = Mn, TPEN with a similar ranking but higher stability constants, and DIP with Cu = Fe > Zn in an inverted arrangement ([43][–][45]). The ∆folE single and double mutants grew with only a slight delay compared to the parental strain AE104 in the presence of TPEN (Fig. S8), and the IC50 values for the ∆folE single mutants and TPEN were not different from that of the parent AE104 (Table S8). When the gene for the zinc importer ZupT was deleted, the IC50 values of all strains decreased below 0.5 µM TPEN, again without differences between the mutants and the ∆zupT parent (Fig. S8C). […] Due to large deviations, not much influence of TPEN on the growth of the ∆folE mutants could be measured. […] In contrast, TPEN mediated an overall decrease of metal availability. In the presence of DIP, growth of both ∆folE_IB mutants of strain AE104 was similar to their parent, but the ∆folE_IA mutant was more sensitive to DIP (Fig. S9A) with a decrease in the IC50 value from about 60 µM to 36 ± 7 µM (Table S8). The zinc content of the four strains in the presence of 25 µM DIP was similar, but the cobalt content was decreased (Table S6). […]

[2] = tested on: T1, Cupriavidus metallidurans AE104; parameters: growth inhibition of bacterial culture by oxidative stress agents; conditions: read-out: PQ
[3] = tested on: T1, Cupriavidus metallidurans AE104; parameters: growth inhibition of bacterial culture, final turbidity in TMM medium; conditions: read-out: TMP,
Description: Trimethoprim and sulfonamide interfere with THF biosynthesis in steps downstream of the reaction catalyzed by the FolE_I-type enzymes. Neither substance induced an up-regulation of folE_IB1 or folE_IA (Table S2), but TMP did induce expression of pfl-glyA (Table S1). The ∆folE_IB1 mutant of strain AE104 was less resistant to trimethoprim than its wild-type parent or the other two ∆folE deletion mutants (Fig. 7A), and the IC50 for trimethoprim decreased from 4 to 3.3 mg/L (Table S9). Resistance to trimethoprim was not affected in the ∆folE_IB2 ∆folE_IA mutant with FolE_IB1 only, but it was in the two double mutants that carried a ∆folE_IB1 deletion (Fig. 7). Resistance to TMP decreased in the ∆zupT ∆folE_IB1 but not in the ∆zur ∆folE_IB1 mutant (Fig. 7B and C). […] Since TMP decreased the concentration of fTHF as shown by the up-regulation of pfl-glyA-lacZ expression, an increased folate production was needed to counteract inhibition of a later step of folate biosynthesis by TMP. This explains the need for the activity of both FolE_IA and FolE_IB1 to resist TMP inhibition. […] Final turbidity of C. metallidurans strains in medium zinc TMM containing varying concentrations of trimethoprim is shown for derivatives of strain AE104 single (panel A) and double (panel B) mutants, ∆zupT (panel C), and ∆zur single mutants (panel D). […]

## c1ccc(-c2ccccn2)nc1 [DIP, dipyridyl]
[1]; read-out: DIP
  IC50: 57 ± 4 µM

## C[n+]1ccc(-c2cc[n+](C)cc2)cc1 [PQ, paraquat]
[2]
  IC50: 181 ± 17 µM

## COc1cc(Cc2cnc(N)nc2N)cc(OC)c1OC [TMP, trimethoprim]
[3]
  IC50: 4 ± 0.2 µg/mL (≈ 13.8 µM)

## c1ccc(CN(CCN(Cc2ccccn2)Cc2ccccn2)Cc2ccccn2)nc1 [TPEN, N,N,N′,N′-tetrakis(2-pyridinylmethyl)-1,2-ethanediamine]
[1]; read-out: TPEN
  IC50: 1.1 ± 0.4 µM
